From paper PMC10535256 (ACS Omega, 2023)

Target: PehR (Ralstonia pseudosolanacearum, UniProt Q8XVM3)
Assay: biochemical

Sequence of PehR (Q8XVM3 1-570): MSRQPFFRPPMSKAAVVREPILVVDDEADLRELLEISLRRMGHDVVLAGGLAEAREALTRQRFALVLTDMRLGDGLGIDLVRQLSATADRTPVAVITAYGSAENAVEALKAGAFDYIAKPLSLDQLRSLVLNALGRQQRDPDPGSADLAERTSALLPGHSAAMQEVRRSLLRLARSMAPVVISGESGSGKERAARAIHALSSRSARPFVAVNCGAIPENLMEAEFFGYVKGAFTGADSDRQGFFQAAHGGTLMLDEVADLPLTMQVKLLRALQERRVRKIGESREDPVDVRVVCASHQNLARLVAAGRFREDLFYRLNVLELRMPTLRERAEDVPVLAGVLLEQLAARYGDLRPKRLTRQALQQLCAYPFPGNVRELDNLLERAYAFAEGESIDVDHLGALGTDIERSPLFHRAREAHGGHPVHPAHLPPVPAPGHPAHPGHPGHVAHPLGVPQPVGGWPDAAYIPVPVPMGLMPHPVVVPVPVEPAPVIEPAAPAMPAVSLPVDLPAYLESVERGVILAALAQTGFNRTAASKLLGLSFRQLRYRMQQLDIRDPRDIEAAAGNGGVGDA

`Nc1ncnc2c1ncn2[C@@H]1O[C@H](COP(=O)(O)OP(=O)(O)OP(=O)(O)O)[C@H]2OC3(O[C@H]21)C([N+](=O)[O-])=CC(=[N+]([O-])O)C=C3[N+](=O)[O-]` (stereo partly shown) [TNP-ATP] gave a Kd of 106 µM.
